In PubChem BioAssay (NCI):
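Cells were grown in 96-well plates and exposed to each compound for 48 hours at five concentrations; endpoints were interpolated linearly between bracketing concentrations, or set to the highest concentration if not reached. Definition used: TGI = concentration required for complete inhibition of growth.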

Columns and labels:
Assay in all cases: DTP human tumour cell line panel, 48 h
[1] = system: 786-0 renal
[2] = system: A498 renal
[3] = system: A549 NSCLC
[4] = system: ACHN renal
[5] = system: CAKI-1 renal
[6] = system: CCRF-CEM leukemia
[7] = system: COLO 205 colon
[8] = system: DU-145 prostate
[9] = system: EKVX NSCLC
[10] = system: HCC-2998 colon
[11] = system: HCT-116 colon
[12] = system: HCT-15 colon
[13] = system: HL-60(TB) leukemia
[14] = system: HOP-62 NSCLC
[15] = system: HOP-92 NSCLC
[16] = system: HS 578T breast
[17] = system: HT29 colon
[18] = system: IGROV1 ovarian
[19] = system: K-562 leukemia
[20] = system: KM12 colon
[21] = system: LOX IMVI melanoma
[22] = system: M14 melanoma
[23] = system: MALME-3M melanoma
[24] = system: MCF7 breast
[25] = system: MDA-MB-231 breast
[26] = system: MDA-MB-435
[27] = system: MDA-N
[28] = system: MOLT-4 leukemia
[29] = system: NCI-H226 lung
[30] = system: NCI-H23 lung
[31] = system: NCI-H460 lung
[32] = system: NCI-H522 lung
[33] = system: NCI/ADR-RES ovarian
[34] = system: OVCAR-3 ovarian
[35] = system: OVCAR-4 ovarian
[36] = system: OVCAR-5 ovarian
[37] = system: OVCAR-8 ovarian
[38] = system: PC-3 prostate
[39] = system: RPMI-8226 leukemia
[40] = system: RXF 393 renal
[41] = system: SF-268 CNS
[42] = system: SF-295 CNS
[43] = system: SF-539 CNS
[44] = system: SK-MEL-2 melanoma
[45] = system: SK-MEL-28 melanoma
[46] = system: SK-MEL-5 melanoma
[47] = system: SK-OV-3 ovarian
[48] = system: SN12C renal
[49] = system: SNB-19 CNS
[50] = system: SNB-75 CNS
[51] = system: SR leukemia
[52] = system: SW-620 colon
[53] = system: T-47D breast
[54] = system: TK-10 renal
[55] = system: U251 CNS
[56] = system: UACC-257 melanoma
[57] = system: UACC-62 melanoma
[58] = system: UO-31 renal

## CC(C)(C)NCc1cc(Nc2ccnc3cc(Cl)ccc23)cc(-c2ccc(Cl)cc2)c1O
[1]
  TGI: 3.98 µM
[2]
  TGI: 11.5 µM
[3]
  TGI: 20.6 µM
[4]
  TGI: 15 µM
[5]
  TGI: 10.6 µM
[6]
  TGI: 5.77 µM
[7]
  TGI: 3.35 µM
[8]
  TGI: 15 µM
[9]
  TGI: 14.8 µM
[10]
  TGI: 3.82 µM
[11]
  TGI: 5.79 µM
[12]
  TGI: 9.96 µM
[13]
  TGI: 4.01 µM
[14]
  TGI: 6.38 µM
[15]
  TGI: 7.08 µM
[16]
  TGI: 6.37 µM
[17]
  TGI: 4.42 µM
[18]
  TGI: 7.18 µM
[19]
  TGI: 2.75 µM
[20]
  TGI: 10.4 µM
[21]
  TGI: 5.64 µM
[22]
  TGI: 4 µM
[23]
  TGI: 3.28 µM
[24]
  TGI: 3.13 µM
[25]
  TGI: 11.7 µM
[26]
  TGI: 3.64 µM
[27]
  TGI: 3.19 µM
[28]
  TGI: 4.55 µM
[29]
  TGI: 22.3 µM
[30]
  TGI: 14 µM
[31]
  TGI: 8.18 µM
[32]
  TGI: 7.51 µM
[33]
  TGI: 14.4 µM
[34]
  TGI: 8.75 µM
[35]
  TGI: 14.5 µM
[36]
  TGI: 16.3 µM
[37]
  TGI: 14.8 µM
[38]
  TGI: 8.22 µM
[39]
  TGI: 4.12 µM
[40]
  TGI: 4.66 µM
[41]
  TGI: 16.2 µM
[42]
  TGI: 6.23 µM
[43]
  TGI: 3.28 µM
[44]
  TGI: 4.02 µM
[45]
  TGI: 3.26 µM
[46]
  TGI: 3.15 µM
[47]
  TGI: 16.9 µM
[48]
  TGI: 8.9 µM
[49]
  TGI: 18.2 µM
[50]
  TGI: 5.13 µM
[51]
  TGI: 4.97 µM
[52]
  TGI: 5.3 µM
[53]
  TGI: 13.3 µM
[54]
  TGI: 7.76 µM
[55]
  TGI: 8.65 µM
[56]
  TGI: 4.11 µM
[57]
  TGI: 3.85 µM
[58]
  TGI: 18.1 µM

## OC(c1nc2ccccc2s1)(C(F)(F)F)C(F)(F)F
[1]
  TGI: > 100 µM
[2]
  TGI: > 100 µM
[3]
  TGI: > 100 µM
[4]
  TGI: > 100 µM
[5]
  TGI: > 100 µM
[6]
  TGI: > 100 µM
[7]
  TGI: > 100 µM
[8]
  TGI: > 100 µM
[9]
  TGI: > 100 µM
[10]
  TGI: > 100 µM
[11]
  TGI: > 100 µM
[12]
  TGI: > 100 µM
[13]
  TGI: > 100 µM
[14]
  TGI: > 100 µM
[16]
  TGI: > 100 µM
[17]
  TGI: > 100 µM
[18]
  TGI: > 100 µM
[19]
  TGI: > 100 µM
[20]
  TGI: > 100 µM
[21]
  TGI: > 100 µM
[22]
  TGI: > 100 µM
[23]
  TGI: > 100 µM
[24]
  TGI: > 100 µM
[25]
  TGI: > 100 µM
[26]
  TGI: > 100 µM
[27]
  TGI: > 100 µM
[28]
  TGI: > 100 µM
[29]
  TGI: > 100 µM
[30]
  TGI: > 100 µM
[31]
  TGI: > 100 µM
[32]
  TGI: > 100 µM
[33]
  TGI: > 100 µM
[34]
  TGI: > 100 µM
[35]
  TGI: > 100 µM
[36]
  TGI: > 100 µM
[37]
  TGI: > 100 µM
[38]
  TGI: > 100 µM
[39]
  TGI: > 100 µM
[40]
  TGI: > 100 µM
[41]
  TGI: > 100 µM
[42]
  TGI: > 100 µM
[43]
  TGI: > 100 µM
[44]
  TGI: > 100 µM
[45]
  TGI: > 100 µM
[46]
  TGI: > 100 µM
[47]
  TGI: > 100 µM
[48]
  TGI: > 100 µM
[49]
  TGI: > 100 µM
[50]
  TGI: > 100 µM
[52]
  TGI: > 100 µM
[53]
  TGI: > 100 µM
[54]
  TGI: > 100 µM
[55]
  TGI: > 100 µM
[56]
  TGI: > 100 µM
[57]
  TGI: > 100 µM
[58]
  TGI: > 100 µM
